Legend:
[1] = in vitro drug release from drug-polymer matrices in simulated gastric fluid; format: physicochemical; conditions: addition of water soluble polymers such as PEG 3350 and Kolliphor P 407 to the polymer matrix; SGF with 5% (w/v) Tween 20
Procedure: To perform the release study, drug-polymer matrices ( 1 cm in length) were incubated with 50 ml of the respective release medium in a 37° C. incubator shaker at 50 rpm. At various times, 1 ml of the release medium was collected and stored at -20° C. until further analysis. The remaining medium was discarded, and the arms were incubated with fresh medium. For measuring drug concentrations in the release medium, all specimens (beam-like arms) were thawed, centrifuged at 1500 g for 10 min, and analyzed using high-performance liquid chromatography (HPLC). Depending on the drug used, the links had excipients and elasticizers added to enhance the drug release and mechanical properties, respectively. For both moxifloxacin ([…], Inc) and carbamazepine (Ark Pharm, Inc), poly(ethylene glycol) (PEG) (molecular weight-3350 Da, Spectrum Corp.), Kolliphor® P 407 (BASF), and EUDRAGIT® E PO (Evonik) were used as excipients. For carbamazepine, CarbothaneTM TPU P[…] was used as an elasticizer. For X-ray visualization, 15% weight ratio of BaSO4 was added. Various polymeric formulations were investigated for controlled release of the drugs. The in vitro drug release was also investigated by changing drug loading and the composition of excipients, as well as application of polymeric coating (using a solution of 5.4% PCL (w/v) and 0.6% EUDRAGIT® E PO (w/v) in acetone). […]

[2] = drug stability in simulated gastric fluid; format: physicochemical; conditions: SGF pH 1.2, 37° C., 24 hour duration; HPLC-UV
Procedure: Given that the tested residence device is designed to reside in the stomach for an extended period, the drug stability was analyzed in simulated gastric fluid (0.2% w/v sodium chloride, and 0.7% w/v hydrochloric acid, adjusted to pH-1.2; referred to as SGF). Moxifloxacin was dissolved in SGF and placed at 37° C. At various times, part of the solution was aliquoted and stored at about −20° C. until further analysis. For carbamazepine, the drug was first dissolved in methanol and then diluted in SGF (at least 100-fold). At various times, part of the solution was collected and stored at −20° C. On completion of the study, drug concentration in the various aliquots was measured using high performance liquid chromatography-ultraviolet (HPLC-UV) analysis (High Performance Liquid Chromatography).

[3] = drug stability at elevated temperature; format: physicochemical; conditions: 120° C., may be reached during manufacturing of the dosage form
Procedure: Additionally, drug stability was evaluated for an elevated temperature of 120° C. which may be reached during the manufacturing of the dosage form.

[4] = solubility in simulated gastric fluid; format: physicochemical
[5] = in vivo prolonged drug delivery, blood concentration versus time; parameters: species or system Yorkshire pigs; conditions: pigs
Procedure: To evaluate the ability of residence devices loaded with the selected carbamazepine formulation to achieve gastric retention, the above described residence device was administered to a large animal model (three 35 to 50 kg Yorkshire pigs for each drug). Following overnight fasting and sedation of the animals, an overtube (US Endoscopy), with endoscopic guidance, was placed into the stomach to facilitate direct gastric delivery of the residence device. A residence devices folded into a cylindrical shape of length 20 cm and diameter of 12 mm (see the folded configuration in FIG. 1A) was administered via the overtube into the stomach of each pig, and the overtube was then removed. […] Serial radiographs were performed immediately afterwards and every 48-72 hours to monitor the integrity and transit of the devices as well as any radiographic evidence of bowel obstruction. In addition, animals were monitored clinically at least twice a day for any evidence of morbidity, including lethargy, inappetence, decreased fecal output, abdominal distension and vomiting. […] Endoscopic evaluation of the stomach over the course of the study was performed to further explore the stomach and ensure the absence of any ulceration or injury. Blood samples were taken at the following time points, 0 min (before administration of the dosage form), 5 min, 15 min, 30 min, 2 hours, 6 hours, daily for a minimum of 5 days, and then three times for the second week from peripheral veins under sedation.
One hundred microliters of each blood sample was spiked with 200 μl of 250 ng/mL internal standard (imipramine for carbamazepine) with acetonitrile added to elicit protein precipitation. Samples were vortexed, sonicated, and centrifuged prior to being pipetted into a well plate containing 200 μl of nanopure water. Finally, the samples were injected into an Ultra Performance Liquid Chromatography tandem mass spectrometry (UPLC-MS/MS) for analysis.

| increase in release of carbamazepine [1] | stability in SGF [2] | drug degradation at elevated temperature [3] | solubility in simulated gastric fluid (SGF) [4] | area under the curve as compared to immediate release formulations ([5]; residence device) | maximum concentration as compared to immediate release formulations ([5]; residence device) | duration of drug delivery after a single administration ([5]; residence device, direct gastric delivery) | Compound | carbamazepine concentration versus time profile ([5]; 14 day residence time, UPLC-MS/MS) |
| --- | --- | --- | --- | --- | --- | --- | --- | --- |
| greater than 3 fold | stable | no appreciable drug degradation | limited solubility | enhanced area under the curve | lower maximum concentration | up to 14 days | NC(=O)N1c2ccccc2C=Cc2ccccc21 [carbamazepine] | initial spike in concentration was observed in the first day followed by relatively uniform concentrations |
| – | stable | no appreciable drug degradation | – | – | – | – | COc1c(N2C[C@@H]3CCCN[C@@H]3C2)c(F)cc2c(=O)c(C(=O)O)cn(C3CC3)c12 [moxifloxacin] | – |

Source: patent publication US11648381B2, “Thermally controlled residence devices” (Massachusetts Institute of Technology, priority 2018, dated 2023)
